Measurements published in US4064235A, “Dopamine derivative compounds, preparation thereof and medicine containing same” (Eisai Co., Ltd., priority 1975, dated 1977).

Tests used:
renal blood flow rate = assay: Measurement of the renal blood flow increasing activity in anesthetized dogs; format: in vivo; conditions: for Duration Time of Activity / Renal Blood Flow Rate Increase Ratio (%): 1 mg/Kg/min into the crotch vein continuously over 3 minutes; for Renal Blood Flow Rate Increase Ratio (%): increase at highest flow rate relative to flow rate before administration; for intensity of the activity and activity duration compared with known compound A: dogs, 1 mg/Kg/min for 3 minutes
Protocol: Measurement of the renal blood flow increasing activity. Compounds Tested:
Crossbred adult dogs (irrespective of the sex) having a body weight of about 15 Kg were used.
The test animal was anesthetized by an intravenous injection of pentobarbital sodium salt (30 mg/Kg) and the abdominal region was fixed. The back region was opened and a probe of a rectangular wave electromagnetic flow meter (Model MF-26 manufactured by Nippon Koden K. K.) was attached to the artery of the left kidney to determine the renal blood flow rate (R. B. F.).
Each test compound was dissolved in distilled water and administered to the test animal from a vinyl resin fine tube inserted and fixed into the crotch vein. The amount administered was 1 mg/Kg/min. and the administration was conducted continuously over a period of 3 minutes.
The degree of increase of the renal blood flow rate by administration of the test compound was expressed in terms of the increase ratio (%), namely the ratio of the increase of the flow rate (when the flow rate was highest) to the flow rate before administration of the test compound. The duration of the activity was simultaneously examined.

renal blood flow [1] = conditions: cited from earlier work
renal blood flow [2] = assay: tracing experiment on renal blood flow promoting activity of isoleucyl dopamine; format: in vivo
From the text: Because of this specific activity, it has been considered to use dopamine for improving renal insufficiency accompanied by hyperpiesia or cardiac insufficiency and other similar diseases. However, since dopamine is promptly converted to norepinephrine or the like by metabolism and the activity is insufficient in duration, it has been difficult to put this compound into practical use.

With `CC(=O)O.NCC(=O)NCC(=O)N1CCC[C@H]1C(=O)NCCc1ccc(O)c(O)c1` [Compound E of Present Invention, N-Glycylglycyl-L-prolyl dopamine acetate] the “Duration Time of Activity” value (renal blood flow rate; anesthetized dogs) was 30 min, the “Renal Blood Flow Rate Increase Ratio (%)” value (renal blood flow rate; anesthetized dogs) was 36% and the “intensity of the activity and activity duration compared with known compound A” value (“intensity … compared with known compound A” below) (renal blood flow rate) was “excellent over the known compound A”.
With “N-Glycyl-L-glutamyl dopamine acetate [Compound B of Present Invention]” the “Duration Time of Activity” value (renal blood flow rate; anesthetized dogs) was 60 min, the “Renal Blood Flow Rate Increase Ratio (%)” value (renal blood flow rate; anesthetized dogs) was 33% and the “intensity … compared with known compound A” value (renal blood flow rate) was “excellent over the known compound A”.
In the case of `CC(=O)O.CC[C@H](C)[C@H](N)C(=O)NCCc1ccc(O)c(O)c1` [Known Compound A, N-L-Isoleucyl dopamine acetate], the “durability of renal blood flow increasing activity compared with dopamine” value (renal blood flow [1]; literature: Am. Chem. So., 165, Meet. MEDI. 11, 1973) is listed as “more durable than that of dopamine”, the “Duration Time of Activity” value (renal blood flow rate; anesthetized dogs) is listed as 6 min and the “Renal Blood Flow Rate Increase Ratio (%)” value (renal blood flow rate; anesthetized dogs) is listed as 10%. For the same compound, the “activity retention time compared with dopamine” value (renal blood flow [2]) was “longer than that of dopamine” and the “renal blood flow promoting activity” value (renal blood flow [2]) was “low”.
In the case of `CC(=O)O.CCC(C)C(N)C(=O)NC(C(=O)NCCc1ccc(O)c(O)c1)C(C)C` (stereo not drawn) [Compound A of Present Invention, n-l-isoleucylvalyl dopamine acetate], the “Duration Time of Activity” value (renal blood flow rate; anesthetized dogs) is reported as 10 min, the “Renal Blood Flow Rate Increase Ratio (%)” value (renal blood flow rate; anesthetized dogs) is reported as 33% and the “intensity … compared with known compound A” value (renal blood flow rate) is reported as “excellent over the known compound A”.
In the case of `CC(=O)O.CC(C)C[C@H](NC(=O)CNC(=O)CN)C(=O)NCCc1ccc(O)c(O)c1` [Compound D of Present Invention, N-Glycylglycyl-L-leucyl dopamine acetate], the “Duration Time of Activity” value (renal blood flow rate; anesthetized dogs) is reported as 20 min, the “Renal Blood Flow Rate Increase Ratio (%)” value (renal blood flow rate; anesthetized dogs) is reported as 37% and the “intensity … compared with known compound A” value (renal blood flow rate) is reported as “excellent over the known compound A”.
With `CC(=O)O.NCC(=O)N1CCC[C@H]1C(=O)NCCc1ccc(O)c(O)c1` [Compound C of Present Invention, N-Glycyl-L-prolyl dopamine acetate] the “Duration Time of Activity” value (renal blood flow rate; anesthetized dogs) was 60 min, the “Renal Blood Flow Rate Increase Ratio (%)” value (renal blood flow rate; anesthetized dogs) was 30% and the “intensity … compared with known compound A” value (renal blood flow rate) was “excellent over the known compound A”.
For `NCCc1ccc(O)c(O)c1` [dopamine], the “activity of increasing the renal blood flow” value (renal blood flow [1]; literature: Circulation Research, vol. XVI, 1965) is given as “specific activity of increasing the renal blood flow” and the “renal blood flow rate change by administration” value (renal blood flow rate; anesthetized dogs) is given as “increased”.
